# Test results from patent publication US20140356468A1, “COMPOSITION CONTAINING PAPER MULBERRY EXTRACTS” (AMOREPACIFIC CORPORATION, priority 2010, published 2014).
# How the values were obtained:
# [1] = test system: differentiated 3T3-L1 adipocytes; test: Inhibition of lipogenesis (Sudan III staining of adipocytes); assay type: cell-based, mouse; design: key: expressed as +++, ++ and + depending on the degree of staining; expressed as +++, ++ and + depending on the degree of staining; expressed as +++, ++ and + depending on the degree of staining; conditions: Sudan III staining grade; positive control 50 μM caffeine
# Procedure: Mouse fibroblast 3T3-L1 cells were seeded into a 6-well culture plate containing 10% fetal bovine serum (FBS)-containing DMEM (Dulbeco's modified eagle's medium (GIBCO BRL, Life Technologes) at a density of 1×10^5 cells/well. After 2 days, the medium was replaced with fresh DMEM (containing 10% FBS), followed by culture for 2 days. Then, the cultured cells were treated with DMEM (containing 10% FBS) containing 1 μg/ml insulin, 0.5 mM IBMX and 0.25 μM dexamethasone to induce differentiation, and after 2 days, the medium was replaced with insulin-containing DMEM, followed by incubation for 5 days. After 5 days, the medium was replaced with normal medium (DMEM containing 10% FBS), and the cells were incubated until the cells morphologically differentiated into adipocytes. In order to measure the effect of the paper mulberry extract on the inhibition of the accumulation of fat in adipocytes, the differentiated 3T3-L1 adipocytes were subjected to Sudan III staining ([…], Sigma-Aldrich). The adipocytes were fixed with 4% paraformaldehyde (pH 7.2) in phosphate buffer at room temperature, and then washed with PBS (phosphate buffered saline), after which the cells were stained with Sudan III and photographed for visual comparison. […] The degree of inhibition of fat accumulation was expressed as +++, ++ and + depending on the degree of staining.
# [2] = test system: differentiated 3T3-L1 adipocytes; test: Stimulation of decomposition of triglyceride in adipocytes (GPO-trinder kit); assay type: cell-based, mouse; conditions: control = 100%; caffeine 50 μM
# Procedure: Mouse fibroblast 3T3-L1 cells were seeded into a 6-well culture plate containing 10% fetal bovine serum (FBS)-containing DMEM (Dulbeco's modified eagle's medium, GIBCO BRL, Life Technologes) at a density of 1×10^5 cells/well. After 2 days, the medium was replaced with fresh DMEM (containing 10% FBS), followed by culture for 2 days. Then, the cultured cells were treated with DMEM (containing 10% FBS) containing 1 μg/ml insulin, 0.5 mM IBMX and 0.25 μM dexamethasone to induce differentiation, and after 2 days, the medium was replaced with insulin-containing DMEM, followed by incubation for 5 days. After 5 days, the medium was replaced with normal medium (DMEM containing 10% FBS), and the cells were incubated until the cells morphologically differentiated into adipocytes. In order to evaluate the effect of the paper mulberry extract on the stimulation of decomposition of triglyceride in adipocytes, a test was carried out using the differentiated […] adipocytes. The 3T3-L1 adipocytes were washed twice with PBS (phosphate buffered saline), and colorless DMEM containing 0.5% fatty acid-free bovine serum albumin (BSA) was added to the cells, and a fraction of the cells was taken and used in the test. As a control, a medium not treated with the test material or the positive control was used. […] (Sigma, St. Louis, Mo., U.S.A.), and the absorbance at 540 nm was measured using an ELISA reader.
# elastase type III = molecular target: T1, elastase type III (Sus scrofa, UniProt P00772); test: Inhibition of elastase activity; assay type: biochemical; conditions: elastase test; extract 10 mg/L, EGCG 250 μM; untreated negative control = 100
# T1 construct: purchased Sigma Aldrich E0127
# T1 sequence (P00772 27-266): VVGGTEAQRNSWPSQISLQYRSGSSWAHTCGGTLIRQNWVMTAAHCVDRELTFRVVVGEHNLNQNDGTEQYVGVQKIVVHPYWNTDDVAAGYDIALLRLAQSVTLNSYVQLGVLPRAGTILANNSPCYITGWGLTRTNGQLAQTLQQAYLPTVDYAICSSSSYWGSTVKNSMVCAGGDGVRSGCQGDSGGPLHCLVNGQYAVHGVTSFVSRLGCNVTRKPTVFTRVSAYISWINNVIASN
# Procedure: The elastase inhibitory activity of the paper mulberry extract prepared in Preparation Example 1 was measured in comparison with that of EGCG. The elastase and substrate used were commercially purchased from Sigma Aldrich (Cat. No. E0127, USA). The elastase inhibitory activity was measured in the following manner. […] Then, 100 μL of 0.4514 mg/mL N-SUCCINYL-[…]-NITROANILIDE in the same buffer used above was added to the plate and allowed to react at 25° C. for 15 minutes. After completion of the reaction, the absorbance at 415 nm was measured. For correction, a blank test was carried out in the same manner. The elastase inhibitory activity was calculated using the following equation. Elastase activity inhibition(%)={1-(C-D)/(A-B)}×100 wherein A: absorbance at 415 nm in the case in which the test sample was not added and the enzyme was added; B: absorbance at 415 nm in the case in which the test sample was not added and the enzyme was not added; C: absorbance at 415 nm in the case in which the test sample was added and the enzyme was added; and D: absorbance at 415 nm in the case in which the test sample was added and the enzyme was not added.
# [3] = test system: MITF expression in Melan-a melanocyte cell line MITF-GLuc; test: Stimulation of MITF expression in transformed melanocytes (GLuc reporter); assay type: cell-based; conditions: 100 μM, 3 days
# Text: To examine the gray preventing effect of the paper mulberry extract, the effect of the paper mulberry extract on the stimulation of MITF expression was examined as disclosed in Korean Patent Application No. 10-2007-0072182 (entitled “A method for screening a gray hair-preventing substance using a transformed cell line and leukoplakia mice and a composition for preventing gray hair containing the gray hair-preventing substance”). The Melan-a melanocyte cell line MITF-GLuc (accession number: KCLRF-BP-00162) transformed with the expression vector pMITF-GLuc was cultured in RPMI 1640 medium containing 10% fetal bovine serum (FBS), 100 unit/ml penicillin-streptomycin (Gibco), 0.1 μM TPA (Sigma) and 400 μg/ml G418 under the conditions of 37° C. and 10% CO2. The positive control IBMX was purchased from Sigma and used at a concentration of 100 μM. […] After the incubation, to quantify the amount of GLuc, a small amount of the medium was taken, transferred to a measurement plate and allowed to react with a substrate. Specifically, a small amount of the medium was taken from the cell culture dish and transferred to a measurement plate, after which 1× GLuc assay working solution (NEB) was added to the medium at a ratio of 4:1, and the amount of light emitted at […] was measured using a luminometer.
# [4] = test system: Leukoplakia mice (C57bl/6-Mitf^mi-vit); test: Gray hair prevention and black hair induction in leukoplakia mice (melanin in hair); assay type: in vivo; conditions: topical twice a day, about 3 weeks; extract 2.5%, IBMX 50 mM in vehicle
# Procedure: Leukoplakia mice (C57bl/6-Mitf^mi-vit) were purchased from The Jackson Lab (USA) and used. The effect of the paper mulberry extract on gray hair prevention in the mice was tested in the following manner. The back of 12-week-old mice was depilated such that the depilated area was the same between the mice. From the day following the depilation day, gray hair-preventing substances were applied to the depilated area twice a day. As a vehicle for the gray hair-preventing substance, a mixture of EtOH:1,3-BG:DW=3:2:5 (volume ratio) was used. […] After about 3 weeks, the difference in gray hair prevention effect between the materials has been distinguished, newly grown hairs were collected and the amount of melanin in the hairs was measured using esperase (Novozyme). […] The reaction solution thus obtained was added to a 96-well plate, and the absorbance at 405 nm was measured, thereby measuring the amount of melanin in the reaction solution. As described above, the leukoplakia mouse model in which the occurrence of gray hair was stimulated was treated with each of the negative control, the positive control and the test sample, and the effects of the negative control, the positive control and the test sample were measured visually and by measuring the amount of melanin in the hair.
# Collagenase (MMP-1) = Collagenase (MMP-1) production in human fibroblasts (ELISA); assay type: cell-based; conditions: extract 10 μg/ml, 24 hours; control = 100
# Procedure: The collagenase production inhibitory ability of the paper mulberry extract prepared in Preparation Example 1 was measured in comparison with that of retinoic acid.
# Human fibroblasts were added to a 96-well microtiter plate containing 2.5% fetal bovine serum-containing DMEM (Dulbecco's Modified Eagle's Media) at a density of 5,000 cells/well and were cultured in a 5% CO2 incubate at 37° C. to a confluence of about 70-80%. Then, the cell culture was treated with 10 μg/ml of the paper mulberry extract of Preparation Example 1 for 24 hours and collected.
# The production of collagenase in the collected cell culture was measured using a commercially available collagenase measurement instrument (Catalog #: RPN 2610, Amersham Pharmacia, USA). […]
# The absorbance of the yellowish 96-well plate at 405 nm was measured using a spectrophotometer, and based on the measurements, the degree of synthesis of collagenase was calculated using the following equation 1. Herein, the absorbance of a cell culture collected from a group not treated with the test sample was used as a control.
# Collagenase expression(%)=(absorbance of cell group treated with material/absorbance of control)×100 Equation 1
# [5] = test system: prostaglandin production in macrophages; test: Inhibition of prostaglandin production in LPS-treated macrophages (ELISA); assay type: cell-based, mice; conditions: percentage relative to 100% for the difference between LPS-treated and non-LPS-treated group
# Procedure: Anti-inflammatory effect was evaluated based on the inhibition of prostaglandin production. The anti-inflammatory effect of the paper mulberry extract of Preparation Example 1 was measured using macrophages. […] Then, 100 μl of the cell suspension was added to each well of a 96-well plate and cultured in a 5% CO2 incubator at 37° C. for 2 hours so that the macrophages were attached to the plate surface. Then, the attached macrophages were washed three times with PBS and used to test the effect of the extract. The cultured macrophages were added to 1%(w/v) LPS-containing RPMI medium at a concentration of 5×10^4 cells/ml and cultured for 12 hours to induce the production of prostaglandin, after which they were treated with 100 μl of the extract. Released prostaglandin was quantitatively analyzed by ELISA. Herein, the prostaglandin production inhibitory activity of the extract was expressed as the percentage of prostaglandin production in the group treated with LPS together with the sample relative to 100% for the difference in prostaglandin production between the LPS-treated group and the non-LPS-treated group.
# [6] = molecular target: T2, 5α-reductase in HEK293-5αR2 cells (Homo sapiens, UniProt P31213); test: Inhibition of 5α-reductase (testosterone to dihydrotestosterone conversion); assay type: cell-based; conditions: radioactivity in the DHT region/total radioactivity; extract 10 μg/ml, 2 hours
# T2 construct: 3×FLAG; expressed in transfected cells; host or cells: HEK293
# T2 sequence (P31213 1-254): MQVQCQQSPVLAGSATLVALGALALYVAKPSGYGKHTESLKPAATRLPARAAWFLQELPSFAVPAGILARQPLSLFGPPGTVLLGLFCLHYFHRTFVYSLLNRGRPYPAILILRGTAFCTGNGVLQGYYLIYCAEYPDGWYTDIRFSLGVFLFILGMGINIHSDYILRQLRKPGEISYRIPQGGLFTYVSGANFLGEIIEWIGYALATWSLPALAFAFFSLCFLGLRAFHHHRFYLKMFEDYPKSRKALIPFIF
# Procedure: In order to examine the effect of inhibiting 5α-reductase activity, the ratio of [^14C]testosterone-to-[14^C]dihydrotestosteron conversion in HEK293-5αR2 cells was measured. HEK293 cells transfected with p3×FLAG-CMV-5αR2 were added to a 24-well plate at a density of 2.5×10^5 cells/well and cultured (Park et al., 2003, JDS. Vol. 31, ppl 91-98). The next day, the medium was replaced with fresh medium containing an enzyme substrate and an inhibitor. As the substrate of the medium, 0.05 μCi [^14C]testosterone (Amersham Pharmacia biotech, UK) was used. In order to measure the degree of inhibition, 10 μg/ml of the paper mulberry extract of Preparation Example 2 was added to the cells which were then incubated in a 5% CO2 incubator at 37° C. for 2 hours. As a positive control, finasteride was used. The culture medium was collected and, steroid was extracted with 800 μl of ethyl acetate. […]
# The plastic sample was dried in air, and the amount of isotopes was measured using a Vas system. Specifically, the dried plastic sheet together with an X-ray film was placed in a Vas cassette, and after 1 week, the amounts of the testosterone and dihydrotestosterone isotopes were measured.
smiles,measurement,setting,value
"Cn1c(=O)c2c(ncn2C)n(C)c1=O [Caffeine, caffeine]",Inhibition (%),[1],+
same,Level of released glycerol,[2],115%
O=C(O[C@@H]1Cc2c(O)cc(O)cc2O[C@@H]1c1cc(O)c(O)c(O)c1)c1cc(O)c(O)c(O)c1 [EGCG],Expression (%),elastase type III,90 ± 1.2%
CC(C)Cn1c(=O)n(C)c(=O)c2[nH]cnc21 [IBMX],Percentage (%) of gluciferase production relative to negative control,[3],180%
same,Ratio (%) of amount of melanin in hair relative to negative control,[4],105.9%
"CC1=C(/C=C/C(C)=C/C=C/C(C)=C/C(=O)O)C(C)(C)CCC1 [Retinoic acid, retinoic acid]",Expression (%) (collagenase),Collagenase (MMP-1),75 ± 3.4%
CC(=O)Oc1ccccc1C(=O)O [aspirin],Prostaglandin production (inhibitory effect on prostaglandin production),[5],25.0%
CC(C)(C)NC(=O)[C@H]1CC[C@H]2[C@@H]3CC[C@H]4NC(=O)C=C[C@]4(C)[C@H]3CC[C@]12C [finasteride],Conversion (%),[6],27.6%
